# Results published in patent US7598271B1, “Crystalline paroxetine methane sulfonate” (Noven Therapeutics, LLC, priority 1997, dated 2009).
# Structures can show the parent of a compound that is named as a salt. Where two headings read alike, the source gives them in different places.
# How the values were obtained:
# [1] = Solubility of paroxetine salts in water; assay type: physicochemical; conditions: for solubility: water
# [2] = causes undesired colouration during classical wet tabletting; cited from earlier work
# [3] = background statement; cited from earlier work
# [4] = Hygroscopicity test of paroxetine salts (40° C., 75% rel. hum); assay type: physicochemical
# Text: (§1) In the following tables 2 and 3, examples of results of hygroscopicity tests and stability tests (in comparison with known salts of paroxetine) are presented.
# [5] = Stability of paroxetine salts by HPLC (total amount of degradation); assay type: physicochemical
# Text: as §1
# [6] = background statement on known salts; cited from earlier work
compound,measurement,setting,value
"Fc1ccc([C@@H]2CCNC[C@H]2COc2ccc3c(c2)OCO3)cc1 [hydrochloride anhydrate, paroxetine hydrochloride, reference compound]",Solubility in water,"[1]; 20° C., hydrochloride",8.2 mg/mL
same,Solubility in water,"[1]; 50° C., hydrochloride",24.2 mg/mL
"Fc1ccc([C@@H]2CCNC[C@H]2COc2ccc3c(c2)OCO3)cc1 [hydrochloride hemihydrate, paroxetine hydrochloride hemihydrate, reference compound]",photostability (in words),[2],limited photostability
same,solubility,[1]; 20 °C,4900 µg/mL
same,solubility,[1]; 50 °C,12600 µg/mL
same,solubility in water (in words),[3],only limited solubility in water
"Fc1ccc([C@@H]2CCNC[C@H]2COc2ccc3c(c2)OCO3)cc1 [hydrochloride, paroxetine hydrochloride, reference compound]",water content (in %) at t = 4 weeks,[4],+2.5%
"CS(=O)(=O)O.Fc1ccc([C@@H]2CCNC[C@H]2COc2ccc3c(c2)OCO3)cc1 [methane sulfonate, Paroxetine Methane Sulfonate]",total amount of degradation by HPLC,"[5]; 20° C., time not given",not observed
same,total amount of degradation by HPLC,"[5]; 80° C., 3 months","<0.2%, 3 months"
same,water content (in %) at t = 0,[4],0.35%
same,water content (in %) at t = 4 weeks,[4],+0.04%
same,Solubility in water,[1]; 20° C.,>1000/10 min mg/ml
same,Solubility in water,[1]; 50° C.,1300 mg/mL
same,Solubility in 2-Propanol,20° C.,7 mg/mL
same,Solubility in 2-Propanol,82° C.,330 mg/mL
same,Solubility in Acetone,20° C.,5 mg/mL
same,Solubility in Acetone,56° C.,37 mg/mL
same,Solubility in Ethanol,20° C.,36 mg/mL
same,Solubility in Ethanol,78° C.,250 mg/mL
same,Solubility in Ethyl acetate,20° C.,2 mg/mL
same,Solubility in Ethyl acetate,77° C.,25 mg/mL
same,Solubility in n-Hexane,20° C.,<0.05 mg/mL
same,Solubility in n-Hexane,69° C.,0.05 mg/mL
"Cc1ccc(S(=O)(=O)O)cc1.Fc1ccc([C@@H]2CCNC[C@H]2COc2ccc3c(c2)OCO3)cc1 [p-toluene sulfonate, Paroxetine p-Toluene Sulfonate]",total amount of degradation by HPLC,"[5]; 20° C., time not given",not observed
same,total amount of degradation by HPLC,"[5]; 80° C., 3 months","<0.2%, 3 months"
same,water content (in %) at t = 0,[4],0.70%
same,water content (in %) at t = 4 weeks,[4],<0.02%
same,Solubility in water,[1]; 20° C.,>1000 mg/mL
same,Solubility in water,[1]; 50° C.,>1000 mg/mL
same,Solubility in 2-Propanol,20° C.,14 mg/mL
same,Solubility in 2-Propanol,82° C.,>500 mg/mL
same,Solubility in Acetone,20° C.,16 mg/mL
same,Solubility in Acetone,56° C.,125 mg/mL
same,Solubility in Ethanol,20° C.,50 mg/mL
same,Solubility in Ethanol,78° C.,>500 mg/mL
same,Solubility in Ethyl acetate,20° C.,22 mg/mL
same,Solubility in Ethyl acetate,77° C.,>500 mg/mL
same,Solubility in n-Hexane,20° C.,<0.05 mg/mL
same,Solubility in n-Hexane,69° C.,<0.05 mg/mL
Paroxetine Acetate,stability (in words),[6],unstable
Paroxetine Maleate [reference compound],stability (in words),[6],unstable
same,total amount of degradation by HPLC,"[5]; 20° C., 12 months","0.2%, 12 months"
same,total amount of degradation by HPLC,"[5]; 80° C., 5 days",">50%, 5 days"
